In the NIST ThermoML archive (doi:10.1016/j.tca.2015.06.017):

Assay: xn = mol fraction of the nth substance listed
Settings: Liquid, Vibrating tube method

CC(C)(C)Cl [2-chloro-2-methylpropane] + CCCCCCC
mass density [kg/m3]
Settings | 283.15 K | 293.15 K | 298.15 K
100 kPa, x2 = 0.0554 | 842.44 | 830.68 | 824.75
100 kPa, x2 = 0.1017 | 832.31 | 820.81 | 814.99
100 kPa, x2 = 0.2004 | 811.94 | 800.91 | 795.33
100 kPa, x2 = 0.3016 | 792.65 | 782.03 | 776.67
100 kPa, x2 = 0.4097 | 773.66 | 763.43 | 758.26
100 kPa, x2 = 0.498 | 759.27 | 749.33 | 744.32
100 kPa, x2 = 0.5983 | 744.02 | 734.42 | 729.58
100 kPa, x2 = 0.7017 | 729.43 | 720.16 | 715.49
100 kPa, x2 = 0.7995 | 716.55 | 707.61 | 703.09
100 kPa, x2 = 0.9032 | 703.79 | 695.15 | 690.79
100 kPa, x2 = 0.9482 | 698.49 | 689.98 | 685.68
2000 kPa, x2 = 0.0554 | 844.68 | 833.14 | 827.29
2000 kPa, x2 = 0.1017 | 834.48 | 823.24 | 817.46
2000 kPa, x2 = 0.2004 | 814.1 | 803.29 | 797.78
2000 kPa, x2 = 0.3016 | 794.78 | 784.22 | 778.97
2000 kPa, x2 = 0.4097 | 775.6 | 765.58 | 760.5
2000 kPa, x2 = 0.498 | 761.33 | 751.59 | 746.66
2000 kPa, x2 = 0.5983 | 745.93 | 736.51 | 731.77
2000 kPa, x2 = 0.7017 | 731.35 | 722.23 | 717.66
2000 kPa, x2 = 0.7995 | 718.47 | 709.61 | 705.19
2000 kPa, x2 = 0.9032 | 705.72 | 697.14 | 692.86
2000 kPa, x2 = 0.9482 | 700.41 | 691.94 | 687.76
5000 kPa, x2 = 0.0554 | 848.13 | 836.88 | 831.22
5000 kPa, x2 = 0.1017 | 837.91 | 826.9 | 821.35
5000 kPa, x2 = 0.2004 | 817.4 | 806.74 | 801.38
5000 kPa, x2 = 0.3016 | 797.97 | 787.77 | 782.63
5000 kPa, x2 = 0.4097 | 778.78 | 769.03 | 763.93
5000 kPa, x2 = 0.498 | 764.17 | 754.81 | 749.94
5000 kPa, x2 = 0.5983 | 748.83 | 739.75 | 734.95
5000 kPa, x2 = 0.7017 | 734.11 | 725.28 | 720.69
5000 kPa, x2 = 0.7995 | 721.17 | 712.57 | 708.17
5000 kPa, x2 = 0.9032 | 708.35 | 700.04 | 695.72
5000 kPa, x2 = 0.9482 | 703.02 | 694.81 | 690.58
7000 kPa, x2 = 0.0554 | 850.47 | 839.29 | 833.69
7000 kPa, x2 = 0.1017 | 840.22 | 829.3 | 823.79
7000 kPa, x2 = 0.2004 | 819.61 | 809.03 | 803.89
7000 kPa, x2 = 0.3016 | 800.1 | 789.87 | 784.93
7000 kPa, x2 = 0.4097 | 780.74 | 771.15 | 766.14
7000 kPa, x2 = 0.498 | 766.3 | 756.85 | 752.1
7000 kPa, x2 = 0.5983 | 750.75 | 741.66 | 737.06
7000 kPa, x2 = 0.7017 | 736.02 | 727.16 | 722.75
7000 kPa, x2 = 0.7995 | 722.99 | 714.5 | 710.2
7000 kPa, x2 = 0.9032 | 710.1 | 701.82 | 697.64
7000 kPa, x2 = 0.9482 | 704.76 | 696.6 | 692.49
10000 kPa, x2 = 0.0554 | 853.75 | 842.85 | 837.41
10000 kPa, x2 = 0.1017 | 843.46 | 832.92 | 827.3
10000 kPa, x2 = 0.2004 | 822.51 | 812.44 | 807.34
10000 kPa, x2 = 0.3016 | 803.09 | 793.26 | 788.26
10000 kPa, x2 = 0.4097 | 783.69 | 774.21 | 769.41
10000 kPa, x2 = 0.498 | 769.05 | 759.84 | 755.22
10000 kPa, x2 = 0.5983 | 753.62 | 744.65 | 740.1
10000 kPa, x2 = 0.7017 | 738.75 | 730.1 | 725.72
10000 kPa, x2 = 0.7995 | 725.53 | 717.31 | 712.96
10000 kPa, x2 = 0.9032 | 712.59 | 704.57 | 700.3
10000 kPa, x2 = 0.9482 | 707.21 | 699.31 | 695.09
20000 kPa, x2 = 0.0554 | 864 | 853.69 | 848.71
20000 kPa, x2 = 0.1017 | 853.55 | 843.51 | 838.45
20000 kPa, x2 = 0.2004 | 832.47 | 822.74 | 818.1
20000 kPa, x2 = 0.3016 | 812.54 | 803.2 | 798.58
20000 kPa, x2 = 0.4097 | 792.93 | 783.9 | 779.66
20000 kPa, x2 = 0.498 | 778.04 | 769.27 | 765.11
20000 kPa, x2 = 0.5983 | 762.35 | 753.74 | 749.57
20000 kPa, x2 = 0.7017 | 747.22 | 738.84 | 734.93
20000 kPa, x2 = 0.7995 | 733.81 | 725.88 | 721.79
20000 kPa, x2 = 0.9032 | 720.64 | 712.92 | 708.9
20000 kPa, x2 = 0.9482 | 715.18 | 707.57 | 703.58
30000 kPa, x2 = 0.0554 | 873.3 | 863.54 | 858.8
30000 kPa, x2 = 0.1017 | 862.73 | 853.13 | 848.35
30000 kPa, x2 = 0.2004 | 841.24 | 832.13 | 827.76
30000 kPa, x2 = 0.3016 | 821.19 | 812.29 | 807.95
30000 kPa, x2 = 0.4097 | 801.28 | 792.63 | 788.48
30000 kPa, x2 = 0.498 | 786.13 | 777.78 | 773.73
30000 kPa, x2 = 0.5983 | 770.17 | 762.02 | 758.07
30000 kPa, x2 = 0.7017 | 754.83 | 746.9 | 743.08
30000 kPa, x2 = 0.7995 | 741.14 | 733.66 | 729.79
30000 kPa, x2 = 0.9032 | 727.83 | 720.51 | 716.58
30000 kPa, x2 = 0.9482 | 722.3 | 715.09 | 711.27
40000 kPa, x2 = 0.0554 | 881.82 | 872.42 | 867.89
40000 kPa, x2 = 0.1017 | 870.96 | 862.05 | 857.39
40000 kPa, x2 = 0.2004 | 849.41 | 840.65 | 836.44
40000 kPa, x2 = 0.3016 | 829.08 | 820.63 | 816.41
40000 kPa, x2 = 0.4097 | 808.91 | 800.54 | 796.66
40000 kPa, x2 = 0.498 | 793.67 | 785.54 | 781.69
40000 kPa, x2 = 0.5983 | 777.41 | 769.5 | 765.72
40000 kPa, x2 = 0.7017 | 761.79 | 754.19 | 750.52
40000 kPa, x2 = 0.7995 | 747.96 | 740.77 | 737.07
40000 kPa, x2 = 0.9032 | 734.49 | 727.37 | 723.74
40000 kPa, x2 = 0.9482 | 728.9 | 721.88 | 718.29
50000 kPa, x2 = 0.0554 | 889.56 | 880.62 | 876.38
50000 kPa, x2 = 0.1017 | 878.68 | 870 | 865.68
50000 kPa, x2 = 0.2004 | 856.76 | 848.46 | 844.44
50000 kPa, x2 = 0.3016 | 836.39 | 828.17 | 824.32
50000 kPa, x2 = 0.4097 | 815.92 | 807.96 | 804.27
50000 kPa, x2 = 0.498 | 800.51 | 792.71 | 789.1
50000 kPa, x2 = 0.5983 | 784.09 | 776.5 | 772.96
50000 kPa, x2 = 0.7017 | 768.34 | 761.01 | 757.53
50000 kPa, x2 = 0.7995 | 754.42 | 747.33 | 743.9
50000 kPa, x2 = 0.9032 | 740.62 | 733.84 | 730.37
50000 kPa, x2 = 0.9482 | 734.97 | 728.3 | 724.81
60000 kPa, x2 = 0.0554 | 896.85 | 888.24 | 884.1
60000 kPa, x2 = 0.1017 | 885.94 | 877.59 | 873.27
60000 kPa, x2 = 0.2004 | 863.93 | 855.9 | 852
60000 kPa, x2 = 0.3016 | 843.17 | 835.3 | 831.63
60000 kPa, x2 = 0.4097 | 822.77 | 814.87 | 811.3
60000 kPa, x2 = 0.498 | 807.05 | 799.57 | 796.01
60000 kPa, x2 = 0.5983 | 790.42 | 783.15 | 779.73
60000 kPa, x2 = 0.7017 | 774.43 | 767.47 | 764.12
60000 kPa, x2 = 0.7995 | 760.28 | 753.62 | 750.3
60000 kPa, x2 = 0.9032 | 746.42 | 739.97 | 736.68
60000 kPa, x2 = 0.9482 | 740.73 | 734.33 | 731.11
65000 kPa, x2 = 0.0554 | 900.21 | 891.92 | 887.83
65000 kPa, x2 = 0.1017 | 889.29 | 881.11 | 877.03
65000 kPa, x2 = 0.2004 | 867.33 | 859.41 | 855.63
65000 kPa, x2 = 0.3016 | 846.38 | 838.73 | 834.93
65000 kPa, x2 = 0.4097 | 825.84 | 818.27 | 814.66
65000 kPa, x2 = 0.498 | 809.97 | 802.79 | 799.35
65000 kPa, x2 = 0.5983 | 793.31 | 786.25 | 782.96
65000 kPa, x2 = 0.7017 | 777.27 | 770.47 | 767.16
65000 kPa, x2 = 0.7995 | 763.11 | 756.52 | 753.28
65000 kPa, x2 = 0.9032 | 749.1 | 742.75 | 739.66
65000 kPa, x2 = 0.9482 | 743.43 | 737.09 | 734.01
